Assay results reported in patent US20120071496A1, “Aminopyrimidinamides As Pest Control Agents” (Bayer CropScience AG, priority 2009, published 2012).

Test: logP (HCOOH)
Format: physicochemical
Conditions: HCOOH (formic acid); Table 2
`CCc1ncccc1C(=O)Nc1c(NC2CC2)ncnc1-c1ccc(Cl)cc1Cl` [1-126, N-[4-Cyclopropylamino-6-(2,4-dichlorophenyl)pyrimidin-5-yl]-2-ethylnicotinamide] gave a chromatographic logP of 1.6.

Same assay, conditions: Table 2
In the case of `O=C(Nc1c(NC2CC2)ncnc1-c1ccc(Cl)cc1)c1cccnc1C(F)(F)F` [1-178], the “logP (HCOOH)” value was 1.76.
With `CCc1ncccc1C(=O)Nc1c(NC2CC2)ncnc1-c1ccc(F)cc1C` [1-180] the “logP (HCOOH)” value was 1.10.
In the case of `Cc1ccccc1C(=O)Nc1c(NC2CC2)ncnc1-c1ccc(OC(F)(F)F)cc1` [1-72], the “logP (HCOOH)” value was 2.35.
For `CCc1ncccc1C(=O)Nc1c(NC(C)C(F)(F)F)ncnc1-c1ccc(F)cc1` (centres unmarked) [1-299], the “logP (HCOOH)” value was 1.85.
With `CCc1ncccc1C(=O)Nc1c(NC2CC2)ncnc1-c1ccc(COc2ccc(C(F)(F)F)cn2)cc1` [1-309] the “logP (HCOOH)” value was 1.77.
With `Cc1ncccc1C(=O)Nc1c(NC2CC2)ncnc1-c1ccc(SC(F)(F)F)cc1` [1-116] the “logP (HCOOH)” value was 1.81.
In the case of `O=C(Nc1c(NC2CC2)ncnc1-c1ccc(OC(F)(F)F)cc1)c1cccnc1Cl` [1-75], the “logP (HCOOH)” value was 1.99.
For `CCc1ncccc1C(=O)Nc1c(NC2CCC2)ncnc1-c1ccc(F)cc1` [1-224], the “logP (HCOOH)” value was 1.36.
For `O=C(Nc1c(NC(C2CC2)C2CC2)ncnc1-c1ccc(OC(F)(F)F)cc1)c1cccnc1Cl` [1-111], the “logP (HCOOH)” value was 2.65.
With `N#Cc1ccc(-c2ncnc(NC3CC3)c2NC(=O)c2cccnc2OCC(F)(F)F)cc1` [1-168] the “logP (HCOOH)” value was 2.11.
For `O=C(Nc1c(NC2CC2)ncnc1-c1ccc(Cl)cc1)c1cccnc1OCC(F)(F)F` [1-166], the “logP (HCOOH)” value was 2.48.
With `O=C(Nc1c(NC2CC2)ncnc1-c1ccc(Cl)cc1)c1cc(Cl)cnc1C1CC1` [1-197] the “logP (HCOOH)” value was 2.52.
In the case of `CCc1ncccc1C(=O)Nc1c(NC2CC2)nc(SC)nc1-c1ccc(Cn2cnc(C(F)(F)C(F)(F)F)n2)cc1` [1-290], the “logP (HCOOH)” value was 2.47.
For `O=C(Nc1c(NC2CC2)ncnc1-c1ccc(OC(F)(F)F)cc1)c1cccnc1OCC(F)(F)F` [1-169], the “logP (HCOOH)” value was 2.84.
For `Cc1ncccc1C(=O)Nc1c(NC2CC2)ncnc1-c1ccc(F)cc1` [1-1], the “logP (HCOOH)” value was 0.71.
For `CCc1ncccc1C(=O)Nc1c(NC(C)C2(Cl)CC2)ncnc1-c1ccc(F)cc1` (centres unmarked) [1-147], the “logP (HCOOH)” value was 1.95.
In the case of `CCc1ncccc1C(=O)Nc1c(NC(C)(C)C)ncnc1-c1ccc(C#N)cc1` [1-136], the “logP (HCOOH)” value was 1.81.
With `CCc1ncccc1C(=O)Nc1c(NC(C)C2CC2)ncnc1-c1ccc(OC(F)(F)F)cc1` (centres unmarked) [1-146] the “logP (HCOOH)” value was 2.18.
For `Cc1ncccc1C(=O)Nc1c(NC(C)C)ncnc1-c1ccc(OC(F)(F)F)cc1` [1-74], the “logP (HCOOH)” value was 1.55.
With `CCc1ncccc1C(=O)Nc1c(NC2CC2)ncnc1-c1ccc(Cn2cnc(C(F)(F)F)n2)cc1` [1-273] the “logP (HCOOH)” value was 1.11.
For `CCc1ncccc1C(=O)Nc1c(NC2CC2)ncnc1-c1ccc(F)cc1` [1-124], the “logP (HCOOH)” value was 1.03.
With `O=C(Nc1c(NC2CC2)ncnc1-c1ccc(Cl)cc1)c1c(F)cccc1Cl` [1-263] the “logP (HCOOH)” value was 2.20.
For `CCc1ncccc1C(=O)Nc1c(NC2CC2)nc(C)nc1-c1ccccc1` [1-275], the “logP (HCOOH)” value was 0.76.
In the case of `CC(C)Oc1ncccc1C(=O)Nc1c(NC2CC2)ncnc1-c1ccc(C#N)cc1` [1-164], the “logP (HCOOH)” value was 2.27.
For `CCc1cccc(Cl)c1C(=O)Nc1c(NC2CC2)ncnc1-c1ccc(C#N)cc1` [1-321], the “logP (HCOOH)” value was 2.37.
With `CCc1ncccc1C(=O)Nc1c(NC2CC2)ncnc1-c1ccc(Cl)cc1F` [1-187] the “logP (HCOOH)” value was 1.46.
In the case of `CCc1ncccc1C(=O)Nc1c(NC2CC2)nc(C)nc1-c1ccc(Cl)cc1Cl` [1-277], the “logP (HCOOH)” value was 1.34.

Same assay, conditions: table after Table 9
With `O=C(Nc1c(NC2CC2)ncnc1-c1ccc(F)cc1)c1ccnn1-c1ccc(F)cc1` [9-1] the “IogP (HCOOH)” value was 1.70.
